Where two headings read alike, the source gives them in different places.
Assays:
[1] = target: T1, rat P2X7 (Rattus norvegicus, UniProt Q64663); experiment: Radioligand binding, rat P2X7-1321N1 cell membranes, tritiated A-804598
T1 sequence (Q64663 1-595): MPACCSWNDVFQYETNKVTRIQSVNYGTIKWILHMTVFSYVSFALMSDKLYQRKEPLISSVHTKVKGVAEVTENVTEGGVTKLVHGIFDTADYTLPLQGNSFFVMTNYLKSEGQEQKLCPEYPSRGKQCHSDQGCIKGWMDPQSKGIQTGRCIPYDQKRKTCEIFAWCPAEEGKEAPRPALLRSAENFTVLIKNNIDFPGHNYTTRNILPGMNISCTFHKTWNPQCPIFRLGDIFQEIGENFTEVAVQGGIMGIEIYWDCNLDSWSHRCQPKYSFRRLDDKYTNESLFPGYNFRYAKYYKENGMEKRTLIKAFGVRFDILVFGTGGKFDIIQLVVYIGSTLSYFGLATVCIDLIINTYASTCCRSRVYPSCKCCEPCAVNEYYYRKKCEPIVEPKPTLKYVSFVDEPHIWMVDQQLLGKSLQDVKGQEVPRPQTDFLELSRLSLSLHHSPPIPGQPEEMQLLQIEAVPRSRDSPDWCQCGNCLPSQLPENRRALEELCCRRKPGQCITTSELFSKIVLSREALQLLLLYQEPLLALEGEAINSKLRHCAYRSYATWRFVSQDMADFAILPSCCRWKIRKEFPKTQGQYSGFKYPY
Excerpt: (§1) P2X7 Antagonism in Recombinant Human P2X7 Cells or Recombinant Rat P2X7 Cells: (a) Ca^2+ Flux and (b) Radioligand Binding

[2] = target: T2, P2X7 (Homo sapiens, UniProt Q99572); experiment: Radioligand binding, human P2X7-1321N1 cell membranes, tritiated A-804598
T2 sequence (Q99572 1-595): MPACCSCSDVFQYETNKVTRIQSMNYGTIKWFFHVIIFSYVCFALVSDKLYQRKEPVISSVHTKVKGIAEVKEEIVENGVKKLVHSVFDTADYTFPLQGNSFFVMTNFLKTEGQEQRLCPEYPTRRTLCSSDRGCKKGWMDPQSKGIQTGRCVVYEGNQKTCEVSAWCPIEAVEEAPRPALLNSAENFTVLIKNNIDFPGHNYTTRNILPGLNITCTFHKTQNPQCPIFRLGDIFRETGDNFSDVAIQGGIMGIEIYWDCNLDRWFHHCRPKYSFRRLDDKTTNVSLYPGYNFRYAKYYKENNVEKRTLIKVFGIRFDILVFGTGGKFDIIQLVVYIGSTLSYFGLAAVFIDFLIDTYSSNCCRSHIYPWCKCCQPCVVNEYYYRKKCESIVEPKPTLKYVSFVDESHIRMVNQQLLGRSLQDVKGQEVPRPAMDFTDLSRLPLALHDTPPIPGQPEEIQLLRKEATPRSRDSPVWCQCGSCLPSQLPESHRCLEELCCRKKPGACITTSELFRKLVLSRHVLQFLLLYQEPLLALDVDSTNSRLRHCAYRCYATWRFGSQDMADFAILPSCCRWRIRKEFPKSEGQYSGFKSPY
Excerpt: as §1

[3] = target: T2, P2X7; experiment: Ca2+ flux (FLIPR) in 1321N1 cells expressing recombinant human P2X7 channel; format: cell-based; parameters: expressed in transfected cells; host or cells: 1321N1 cells; details: 250 μM BzATP
Outline: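 1321N1 cells expressing recombinant human P2X7, loaded 60 min with Calcium-4 dye in HEPES buffer pH 7.40 (1 mM CaCl2, 1 mM MgCl2), preincubated 30 min with compounds. Fluorescence change recorded 180 seconds after agonist addition.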

[4] = target: T1, rat P2X7; experiment: Ca2+ flux (FLIPR) in 1321N1 cells expressing recombinant rat P2X7 channel; details: 250 μM BzATP

Row | Ki [1] [nM] | Ki [2] [nM] | IC50 [3] [nM] | IC50 ([4]; FLIPR (rat) IC50 (μM)) [µM] | IC50 ([4]; read-out: FLIPR (rat) IC50) [µM] | Compound
1 | 25.1 | 28.8 | 52.9 | 0.542 | – | O=C(c1cccc(C(F)(F)F)c1Cl)N1CCn2c(nnc2C(F)(F)F)C1c1ccccc1 (racemic) [Example 75, (±)-(2-chloro-3-(trifluoromethyl)phenyl)(8-phenyl-3-(trifluoromethyl)-5,6-dihydro-[1,2,4]triazolo[4,3-a]pyrazin-7(8H)-yl)methanone]
2 | 56.2 | – | 9930 | 7.67 | – | C[C@H]1Cn2c(nnc2-c2ccccc2F)CN1C(=O)c1cccc(Cl)c1Cl [Example 38, (S)-(2,3-dichlorophenyl)(3-(2-fluorophenyl)-6-methyl-5,6-dihydro-[1,2,4]triazolo[4,3-a]pyrazin-7(8H)-yl)methanone]
3 | 18.6 | – | 2130 | 9.23 | – | C[C@H]1Cn2c(nnc2-c2cccc(F)c2)CN1C(=O)c1cccc(C(F)(F)F)c1Cl [Example 42, (S)-(2-chloro-3-(trifluoromethyl)phenyl)(3-(3-fluorophenyl)-6-methyl-5,6-dihydro-[1,2,4]triazolo[4,3-a]pyrazin-7(8H)-yl)methanone]
4 | 133 | – | 9710 | > 10 | – | C[C@H]1Cn2c(nnc2-c2cccc(F)c2)CN1C(=O)c1ccc(F)c(Cl)c1Cl [Example 43, (S)-(2,3-dichloro-4-fluorophenyl)(3-(3-fluorophenyl)-6-methyl-5,6-dihydro-[1,2,4]triazolo[4,3-a]pyrazin-7(8H)-yl)methanone]
5 | 2 | 7.9 | 2.7 | 0.0269 | – | Cc1nnc2n1CCN(C(=O)c1cccc(C(F)(F)F)c1Cl)[C@H]2c1ccccc1 [Example 66, (S)-(2-chloro-3-(trifluoromethyl)phenyl)(3-methyl-8-phenyl-5,6-dihydro-[1,2,4]triazolo[4,3-a]pyrazin-7(8H)-yl)methanone]
6 | 4 | 12.6 | 6.9 | 0.0077 | – | C[C@H]1Cn2c(nnc2-c2ccc(F)cn2)CN1C(=O)c1cccc(C(F)(F)F)c1Cl [Example 70, (S)-(2-chloro-3-(trifluoromethyl)phenyl)(3-(5-fluoropyridin-2-yl)-6-methyl-5,6-dihydro-[1,2,4]triazolo[4,3-a]pyrazin-7(8H)-yl)methanone]
7 | 178 | – | 8590 | > 10 | – | COc1ccc(-c2nnc3n2C[C@H](C)N(C(=O)c2cccc(Cl)c2Cl)C3)nc1 [Example 72, (S)-(2,3-dichlorophenyl)(3-(5-methoxypyridin-2-yl)-6-methyl-5,6-dihydro-[1,2,4]triazolo[4,3-a]pyrazin-7(8H)-yl)methanone]
8 | 5 | 10 | 6.7 | 0.0168 | – | O=C(c1cccc(C(F)(F)F)c1Cl)N1CCn2c(C3CC3)nnc2[C@@H]1c1ccccc1 [Example 76, (S)-(2-chloro-3-(trifluoromethyl)phenyl)(3-cyclopropyl-8-phenyl-5,6-dihydro-[1,2,4]triazolo[4,3-a]pyrazin-7(8H)-yl)methanone]
9 | 8.9 | 50.1 | 11.3 | – | 0.027 | CC(C)(C)c1nnc2n1CCN(C(=O)c1cccc(C(F)(F)F)c1Cl)[C@@H]2c1ccccc1 [Example 81, (R)-(3-(tert-butyl)-8-phenyl-5,6-dihydro-[1,2,4]triazolo[4,3-a]pyrazin-7(8H)-yl)(2-chloro-3-(trifluoromethyl)phenyl)methanone]
10 | 10 | 12.6 | 2.3 | – | 0.0585 | CCc1nnc2n1CCN(C(=O)c1cccc(C(F)(F)F)c1Cl)[C@@H]2c1ccccc1 [Example 86, (R)-(2-chloro-3-(trifluoromethyl)phenyl)(3-ethyl-8-phenyl-5,6-dihydro-[1,2,4]triazolo[4,3-a]pyrazin-7(8H)-yl)methanone]
11 | 25.1 | 20 | 10.2 | 0.166 | – | CC(C)c1nnc2n1CCN(C(=O)c1cccc(C(F)(F)F)c1Cl)[C@@H]2c1ccccc1 [Example 88, (R)-(2-chloro-3-(trifluoromethyl)phenyl)(3-isopropyl-8-phenyl-5,6-dihydro-[1,2,4]triazolo[4,3-a]pyrazin-7(8H)-yl)methanone]
12 | 6.3 | 15.8 | 8.1 | 0.0178 | – | O=C(c1cccc(C(F)(F)F)c1Cl)N1CCn2c(C3CCC3)nnc2[C@H]1c1ccccc1 [Example 93, (R)-(2-chloro-3-(trifluoromethyl)phenyl)(3-cyclobutyl-8-phenyl-5,6-dihydro-[1,2,4]triazolo[4,3-a]pyrazin-7(8H)-yl)methanone]
13 | 4.7 | 12.6 | 7.8 | 0.0428 | – | O=C(c1cccc(C(F)(F)F)c1Cl)N1CCn2c(nnc2C(F)(F)F)[C@H]1c1ccccc1 [Example 97, (R)-(2-chloro-3-(trifluoromethyl)phenyl)(8-phenyl-3-(trifluoromethyl)-5,6-dihydro-[1,2,4]triazolo[4,3-a]pyrazin-7(8H)-yl)methanone]
14 | 29.5 | 10 | 10.5 | 0.488 | – | O=C(c1cccc(Cl)c1Cl)N1CCn2c(nnc2C(F)(F)F)[C@H]1c1ccccc1 [Example 102, (R)-(2,3-dichlorophenyl)(8-phenyl-3-(trifluoromethyl)-5,6-dihydro-[1,2,4]triazolo[4,3-a]pyrazin-7(8H)-yl)methanone]
15 | 10 | 5.8 | 8.6 | 0.0816 | – | O=C(c1cccc(C(F)(F)F)c1Cl)N1CCn2c(C(F)F)nnc2[C@H]1c1ccccc1 [Example 108, (R)-(2-chloro-3-(trifluoromethyl)phenyl)(3-(difluoromethyl)-8-phenyl-5,6-dihydro-[1,2,4]triazolo[4,3-a]pyrazin-7(8H)-yl)methanone]
16 | 16.6 | 7.9 | 3.4 | 0.441 | – | O=C(c1cccc(Cl)c1Cl)N1CCn2c(C(F)F)nnc2[C@H]1c1ccccc1 [Example 110, (R)-(2,3-dichlorophenyl)(3-(difluoromethyl)-8-phenyl-5,6-dihydro-[1,2,4]triazolo[4,3-a]pyrazin-7(8H)-yl)methanone]

— patent US12338243B2, “P2X7 modulators” (JANSSEN PHARMACEUTICA NV, priority 2014, dated 2025)
